Assay results: ChEMBL document CHEMBL1201862, “PubChem BioAssay data set” (2004)
The source made the active and inactive calls.

Assays:
[1] = CellTiter-Glo luminescence survival assay, SW480 colon tumor line, concentration-response curve, half-maximal inhibitory concentration (AID 1117338); type: functional
[2] = RKO cell viability reduction, dose response, CellTiter-Glo luminescence (AID 1117322); type: functional
[3] = cytotoxicity toward HCT116 cells – cell-based, CellTiter-Glo luminescence, IC50, dose response (AID 1117332); type: functional; conditions: HCT-116
[4] = SNU-C1 cell viability reduction, dose response, CellTiter-Glo luminescence (AID 1117323); type: functional, cell-based
[5] = glucagon-like peptide-1 release potency in STC-1, concentration-response, half-maximal inhibitory concentration in the STC-1 line (AID 1117345); type: functional, cell-based
[6] = cytotoxicity toward Colo320 cells – cell-based, CellTiter-Glo luminescence, IC50, dose response (AID 1117334); type: functional; conditions: COLO 320
[7] = cytotoxicity toward HT-29 cells – cell-based, CellTiter-Glo luminescence, IC50, dose response (AID 1117330); type: functional
[8] = Reduced DLD-1 viability, concentration-response, CellTiter-Glo luminescence (AID 1117352); type: functional
[9] = HCT116 cell viability decrease, GSK3B pretreatment – CellTiter-Glo, IC50, dose response (AID 1117339); type: functional; conditions: HCT-116
[10] = Potency on glucagon-like peptide 1 release, dose-response in NCI-H716 cell line, half maximal inhibitory concentration (AID 1117344); type: functional, cell-based
[11] = T. cruzi growth inhibition in host cells, dose response, cell-based, plate reader, dry powder, set 2 (AID 652275); type: functional
[12] = Trypanosoma cruzi replication inhibitors in host cells – cell-based, plate reader, dry powder samples, dose response (AID 651845); type: functional
[13] = anti-trypanosomal activity in BESM host cells – imaging, CA-I/72 strain, bovine embryo skeletal muscle, dry powder, dose response (AID 651885); type: functional, cell-based
[14] = growth inhibition of yeast DHODH-expressing 3D7 parasites – SYBR Green, dry powder samples, dose response (AID 1159570); type: functional, cell-based;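 also: parasite growth measured after 72 hours of compound exposure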
[15] = Dd2 parasite growth inhibition in erythrocytes – SYBR Green, dry powder samples, set 9, dose response (AID 1159568); type: functional, cell-based
[16] = P. falciparum Dd2 growth inhibitors, dose response, SYBR Green, cherry-picked samples (AID 1159567); type: functional, cell-based
[17] = Dd2 malaria parasite growth inhibition potency – SYBR Green, dry powder samples, dose response (AID 1159566); type: functional, cell-based;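 also: potency for growth inhibition with lower SYBR green DNA signal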
[18] = Plasmodium falciparum Dd2 Sybr green parasite growth Measured in Cell-Based and Microorganism Combination System Using Plate Reader - 2153-01_Inhibitor_Dose_DryPowder_Activity_Set3.; type: functional
[19] = growth inhibition of PfATP4-mutant resistant parasites – NITD609-resistant line, SYBR Green, dry powder, dose response (AID 1159571); type: functional, cell-based;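 also: parasites synchronized at ring stage by sorbitol before testing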
[20] = molecular target: T1, DNA repair protein RAD52 homolog (Homo sapiens, UniProt P43351); type: functional, biochemical
T1 sequence (P43351 whole entry): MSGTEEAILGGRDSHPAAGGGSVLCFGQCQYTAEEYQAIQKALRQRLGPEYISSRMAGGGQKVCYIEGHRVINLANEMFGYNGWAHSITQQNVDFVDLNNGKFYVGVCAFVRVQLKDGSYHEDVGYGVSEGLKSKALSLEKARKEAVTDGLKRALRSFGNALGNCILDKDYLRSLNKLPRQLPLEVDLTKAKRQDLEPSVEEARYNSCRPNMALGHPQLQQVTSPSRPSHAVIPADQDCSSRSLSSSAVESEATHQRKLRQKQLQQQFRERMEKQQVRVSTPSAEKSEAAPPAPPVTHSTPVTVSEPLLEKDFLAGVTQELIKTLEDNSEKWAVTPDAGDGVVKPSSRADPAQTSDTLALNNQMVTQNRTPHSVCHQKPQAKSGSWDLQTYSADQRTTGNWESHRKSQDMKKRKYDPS

[21] = molecular target: RNA-editing ligase 1, mitochondrial (Trypanosoma brucei brucei, UniProt P86926); assay: inhibition of trypanosome RNA editing ligase – biochemical, fluorescence, Trypanosoma brucei, dose response (AID 1117295); type: functional
Chain of RNA-editing ligase 1, mitochondrial (P86926 whole entry): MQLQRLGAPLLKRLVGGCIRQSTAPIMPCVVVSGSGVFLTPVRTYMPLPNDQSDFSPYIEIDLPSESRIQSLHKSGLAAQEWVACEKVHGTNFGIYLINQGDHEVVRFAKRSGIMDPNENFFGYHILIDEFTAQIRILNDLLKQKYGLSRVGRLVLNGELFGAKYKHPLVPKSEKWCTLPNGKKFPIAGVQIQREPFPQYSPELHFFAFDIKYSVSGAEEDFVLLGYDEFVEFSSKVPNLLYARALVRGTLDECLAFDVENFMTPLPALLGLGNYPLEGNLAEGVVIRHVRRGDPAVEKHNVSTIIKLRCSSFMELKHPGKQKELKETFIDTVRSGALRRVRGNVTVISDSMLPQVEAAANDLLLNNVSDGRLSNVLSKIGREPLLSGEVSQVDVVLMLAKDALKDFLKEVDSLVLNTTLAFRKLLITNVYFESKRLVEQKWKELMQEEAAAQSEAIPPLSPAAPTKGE

[22] = viability loss in Vero cells – cytotoxicity control for Vif-APOBEC3G degradation inhibitor project, dose response (AID 1117358); type: functional; conditions: Vero
[23] = molecular target: Sphingosine 1-phosphate receptor 2 (Homo sapiens, UniProt O95136); assay: Dose Response Cell Based Assay for Antagonists of the S1P2 Receptor. [Related pubchem assays: 856, 736 ]; type: functional
Chain of Sphingosine 1-phosphate receptor 2 (O95136 whole entry): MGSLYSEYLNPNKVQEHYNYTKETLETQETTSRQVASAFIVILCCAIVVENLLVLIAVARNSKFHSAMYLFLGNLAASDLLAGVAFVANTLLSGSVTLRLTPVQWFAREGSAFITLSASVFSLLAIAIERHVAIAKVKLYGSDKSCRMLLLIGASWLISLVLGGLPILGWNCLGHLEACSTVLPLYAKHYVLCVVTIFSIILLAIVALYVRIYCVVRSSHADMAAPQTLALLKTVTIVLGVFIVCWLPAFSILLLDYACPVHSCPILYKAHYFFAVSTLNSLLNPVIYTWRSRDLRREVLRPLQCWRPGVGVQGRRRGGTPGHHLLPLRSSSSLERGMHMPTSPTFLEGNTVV

INS1 = assay: INS-1E survival protection against cytokine death – cell-based, luminescence, retest, dose response (AID 449756); type: functional; conditions: Rattus norvegicus;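 also: cell death triggered by IL-1 beta plus TNF-alpha plus IFN-gamma mixture; protective hits raise ATP signal compared with cytokine alone wells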
[24] = intracellular Trypanosoma cruzi inhibitors in host cells – cell-based, plate reader, cherry-pick samples, set 3, dose response (AID 651818); type: functional;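 also: compounds incubated with infected cells for about four days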
Paired box protein Pax-8 = Paired box protein Pax-8 (Homo sapiens, UniProt Q06710); assay: PAX8 transcriptional activity inhibition in RMG-I – RMG-I cells, luciferase, cherry-pick, dose response (AID 687027); type: functional, cell-based;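 also: luciferase reporter driven by Pax8 target thyroperoxidase promoter measured by SteadyGlo luminescence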
Chain of Paired box protein Pax-8 (Q06710 whole entry): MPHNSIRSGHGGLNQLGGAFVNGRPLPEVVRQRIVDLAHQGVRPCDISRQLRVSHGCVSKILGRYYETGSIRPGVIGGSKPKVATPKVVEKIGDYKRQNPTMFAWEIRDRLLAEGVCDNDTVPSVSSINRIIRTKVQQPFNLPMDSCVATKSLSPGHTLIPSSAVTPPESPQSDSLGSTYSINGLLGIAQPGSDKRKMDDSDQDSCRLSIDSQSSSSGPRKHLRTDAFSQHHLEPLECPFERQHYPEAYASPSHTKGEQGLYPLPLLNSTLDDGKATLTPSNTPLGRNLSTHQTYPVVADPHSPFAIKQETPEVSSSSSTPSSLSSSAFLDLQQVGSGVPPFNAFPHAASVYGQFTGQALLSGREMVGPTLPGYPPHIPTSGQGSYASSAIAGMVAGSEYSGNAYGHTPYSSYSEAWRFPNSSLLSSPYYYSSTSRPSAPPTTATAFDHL

[25] = inhibitors acting on PAX2 in cells – cell-based, plate reader, dry powder samples, selectivity assay for PAX8 inhibitor project, dose response (AID 743048); type: functional;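 also: HEK293 cells carrying a WT1 promoter luciferase reporter driven by expressed Pax2; potency is for inhibition of Pax2 driven reporter signal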
[26] = OVCAR-3 cell viability loss – plate reader, dry powder samples, PAX8 inhibitor project, dose response (AID 743044); type: functional, cell-based
[27] = PAX5 cellular inhibition readout – cell-based, plate reader, dry powder samples, selectivity assay for PAX8 inhibitor project, dose response (AID 743047); type: functional;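 also: HEK293 cells carrying a Pax5 driven CD19 promoter luciferase reporter; potency of inhibitors that lower reporter luminescence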
[28] = OVCAR4 cell viability loss – plate reader, dry powder, SA11, cytotoxicity control for PAX8 inhibitor project, dose response (AID 743150); type: functional, cell-based; conditions: OVCAR-4
[29] = OV-90 cell viability loss – plate reader, dry powder, SA8, PAX8 inhibitor project, dose response (AID 743149); type: functional, cell-based
[30] = PAX8-dependent cell viability loss – plate reader, dry powder, dose response (AID 743049); type: functional, cell-based
[31] = Late stage results for the probe development effort to identify inhibitors of Plasmodium falciparum gametocytes: Luminescence-based cell-based high throughput dose response assay to identify inhibitors of viability of late stage Plasmodium falciparum gametocytes.; type: functional
[32] = molecular target: Serine/threonine-protein phosphatase PP1-alpha catalytic subunit (Homo sapiens, UniProt P62136); assay: inhibition of protein phosphatase 1 activity – biochemical, fluorescence, dose response (AID 2403);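 also: phosphatase turnover of OMFP into fluorescent 3-O-methylfluorescein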
Chain of Serine/threonine-protein phosphatase PP1-alpha catalytic subunit (P62136 whole entry): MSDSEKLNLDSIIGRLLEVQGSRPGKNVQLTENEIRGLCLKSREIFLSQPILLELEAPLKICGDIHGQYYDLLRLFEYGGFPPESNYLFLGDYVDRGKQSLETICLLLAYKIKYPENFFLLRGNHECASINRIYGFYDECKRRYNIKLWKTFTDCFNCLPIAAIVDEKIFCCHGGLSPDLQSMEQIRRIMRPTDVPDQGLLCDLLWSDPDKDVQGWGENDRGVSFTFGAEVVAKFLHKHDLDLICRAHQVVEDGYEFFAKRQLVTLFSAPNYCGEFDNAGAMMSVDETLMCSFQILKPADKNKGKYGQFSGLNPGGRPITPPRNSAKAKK

[33] = microbe, parasite or virus in culture; type: functional; conditions: Mycobacterium tuberculosis
[34] = molecular target: Serine/threonine-protein phosphatase (Homo sapiens, UniProt Q9BPW0); assay: Counterscreen for inhibitors of PP1: fluorescence-based biochemical high throughput dose response assay to identify inhibitors of Protein Phosphatase 5 (PP5). [Related pubchem assays: 2034 (Summary (PP5 inhibitors)), 1987 (PP5 inhibitors in singlate), 2235 (PP1 inhibitors in singlate)]
Chain of Serine/threonine-protein phosphatase (Q9BPW0 whole entry): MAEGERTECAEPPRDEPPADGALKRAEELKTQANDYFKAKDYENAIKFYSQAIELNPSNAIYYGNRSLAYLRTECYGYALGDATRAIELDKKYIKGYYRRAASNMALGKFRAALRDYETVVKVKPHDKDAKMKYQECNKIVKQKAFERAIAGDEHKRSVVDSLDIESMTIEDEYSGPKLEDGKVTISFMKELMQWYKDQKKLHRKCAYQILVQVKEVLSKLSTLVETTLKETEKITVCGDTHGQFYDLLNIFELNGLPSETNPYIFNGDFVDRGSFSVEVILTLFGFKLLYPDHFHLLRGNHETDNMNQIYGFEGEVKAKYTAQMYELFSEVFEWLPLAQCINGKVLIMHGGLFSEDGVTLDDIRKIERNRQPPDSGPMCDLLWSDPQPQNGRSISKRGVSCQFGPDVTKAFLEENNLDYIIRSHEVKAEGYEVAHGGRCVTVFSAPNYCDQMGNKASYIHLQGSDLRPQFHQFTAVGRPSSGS

[35] = IC50 of Artemis nuclease activity blockers – biochemical, fluorescence intensity, dose response (AID 720701); type: functional;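 also: Artemis endonuclease enzyme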
Cytochrome P450 2C9 = Cytochrome P450 2C9 (Homo sapiens, UniProt P11712)
Chain of Cytochrome P450 2C9 (P11712 whole entry): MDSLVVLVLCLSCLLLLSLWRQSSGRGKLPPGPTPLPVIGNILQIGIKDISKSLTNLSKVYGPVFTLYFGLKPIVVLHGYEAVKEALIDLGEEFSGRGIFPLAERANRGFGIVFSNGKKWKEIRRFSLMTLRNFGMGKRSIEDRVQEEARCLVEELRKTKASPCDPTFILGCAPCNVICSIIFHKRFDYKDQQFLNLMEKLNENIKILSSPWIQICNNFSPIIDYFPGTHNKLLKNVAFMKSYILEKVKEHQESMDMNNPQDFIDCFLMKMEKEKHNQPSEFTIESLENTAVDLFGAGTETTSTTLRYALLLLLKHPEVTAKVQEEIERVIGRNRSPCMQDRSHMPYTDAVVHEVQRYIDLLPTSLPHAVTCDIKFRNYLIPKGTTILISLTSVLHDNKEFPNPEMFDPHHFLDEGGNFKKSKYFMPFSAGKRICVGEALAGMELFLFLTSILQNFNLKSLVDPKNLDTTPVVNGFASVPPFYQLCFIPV

With `Clc1ccc(C(Cn2ccnc2)OCc2c(Cl)cccc2Cl)c(Cl)c1` (stereo not drawn) [ISOCONAZOLE] the IC50 [1] was 2.6 µM (active), the IC50 [2] was 4.01 µM (active) and the IC50 [3] was 1.59 µM (active). For the same compound, the IC50 [4] was 0.886 µM (active), the IC50 [5] was > 40 µM (inactive) and the IC50 [6] was 1.82 µM (active). The IC50 [7] was 5 µM (inactive), the IC50 [8] was 2.36 µM (active) and the IC50 [9] was 1.4 µM (active). For the same compound, the IC50 [10] was > 40 µM (inactive).

In the case of `CC(C)N1C[C@H](C)[C@@H](CN(C)Cc2ccc(Oc3ccccc3)cc2)Oc2c(NC(=O)c3ccccc3)cccc2C1=O`, the AC50 [11] was 0.506 µM (active), the AC50 [12] was 0.506 µM (active) and the IC50 [13] was > 20 µM (inactive).

With `CO[C@@H]1CN(C)C(=O)c2ccc(NC(=O)c3ccc4c(c3)OCO4)cc2OC[C@@H](C)N(Cc2ccc3c(c2)OCO3)C[C@H]1C` the AC50 [14] was 4.99 µM (active), the AC50 [15] was 1.73 µM (active) and the AC50 [16] was 1.11 µM (active). The AC50 [17] was 0.279 µM (active), the AC50 [18] was 1.92 µM (active) and the AC50 [19] was 1.17 µM (active).

In the case of `COc1ccccc1N(Cc1ccccc1)S(=O)(=O)c1cccc(C(=O)NC2CC(C)(C)NC(C)(C)C2)c1`, the AC50 [20] was 13.4 µM (active) and the IC50 [21] was > 96.6 µM (inactive).

With `O=C(CSc1nc2cc(Cl)ccc2s1)N1CCN(C(=O)c2ccco2)CC1` the CC50 [22] was > 40 µM (active).

In the case of `Cc1ccc(-c2nn(-c3ccccc3)cc2/C=N/NC(=O)c2ccc(Br)o2)cc1`, the IC50 [23] was 3.36 µM (active) and the AC50 (INS1) was 0.716 µM (active).

With `COc1ccc(S(=O)(=O)Nc2ccc3c(c2)CC(=O)N([C@@H](C)CO)C[C@H](C)[C@@H](CN(C)Cc2ccc(C(F)(F)F)cc2)O3)cc1` the AC50 [24] was 3.67 µM (active), the AC50 (Paired box protein Pax-8) was 6.21 µM (active) and the AC50 [25] was 20 µM (active). The AC50 [26] was 49.1 µM (active), the AC50 [27] was 21.7 µM (active) and the AC50 [28] was 59.7 µM (active). The AC50 [29] was > 70 µM (inactive) and the AC50 [30] was 31.3 µM (active).

In the case of `O=C(Nc1nccs1)c1cc(C2CC2)nn1-c1ccccc1`, the IC50 [31] was > 37.2 µM (inactive).

For `c1ccc(-c2nccc(-c3ccc(-n4cnc5ccccc54)cc3)n2)nc1`, the IC50 [32] was 4 µM (active), the CC50 [33] was > 40 µM (active) and the IC50 [34] was 57.6 µM (not active). For the same compound, the IC50 [35] was 4.65 µM (active) and the AC50 (Cytochrome P450 2C9) was 22.4 µM (inconclusive).
